molecular target: recombinant human HPK1 (Homo sapiens (Human), UniProt Q92918); assay: HPK1 kinase assay (ADP-Glo); type: biochemical; details: 25 μM ATP, MBP substrate
How it was run: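 Activity was read as ADP formed, detected by ADP-Glo luminescence after the reaction of 5 ng recombinant human HPK1 with MBP and ATP (stocks 0.5 μg/μl and 25 μM) for 40 min at 30 °C. Buffer was Tris pH 7.5 with MgCl2, BSA and DTT, with compound in 0.5% DMSO. IC50 came from inhibition curves.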

recombinant human HPK1, sequence (Q92918 whole entry): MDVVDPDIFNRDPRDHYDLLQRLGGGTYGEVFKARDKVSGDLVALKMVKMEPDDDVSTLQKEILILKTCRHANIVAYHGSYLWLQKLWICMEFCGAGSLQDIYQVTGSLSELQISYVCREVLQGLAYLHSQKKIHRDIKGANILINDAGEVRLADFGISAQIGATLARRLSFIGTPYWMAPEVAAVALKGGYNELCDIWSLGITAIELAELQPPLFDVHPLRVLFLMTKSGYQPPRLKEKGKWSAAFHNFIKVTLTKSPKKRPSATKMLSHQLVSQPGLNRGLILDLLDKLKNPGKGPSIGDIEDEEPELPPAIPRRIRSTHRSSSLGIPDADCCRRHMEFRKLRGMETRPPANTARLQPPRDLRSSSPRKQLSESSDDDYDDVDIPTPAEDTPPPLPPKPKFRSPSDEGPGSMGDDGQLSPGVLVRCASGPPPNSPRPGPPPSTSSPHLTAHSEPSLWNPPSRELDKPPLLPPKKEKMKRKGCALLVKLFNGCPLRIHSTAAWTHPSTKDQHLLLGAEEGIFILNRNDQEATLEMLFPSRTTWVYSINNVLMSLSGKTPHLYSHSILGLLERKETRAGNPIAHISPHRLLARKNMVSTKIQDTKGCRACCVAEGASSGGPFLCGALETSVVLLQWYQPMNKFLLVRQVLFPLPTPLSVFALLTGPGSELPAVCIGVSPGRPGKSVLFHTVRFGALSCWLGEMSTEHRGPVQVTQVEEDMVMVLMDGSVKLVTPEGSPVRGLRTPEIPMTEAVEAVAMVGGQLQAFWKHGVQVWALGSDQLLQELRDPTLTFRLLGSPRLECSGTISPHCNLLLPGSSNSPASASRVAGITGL

Row | SMILES | IC50 [nM]
1 | O=C(Nc1cn2cc(-c3c(Cl)c(F)c(Br)c4[nH]ncc34)ccc2n1)[C@@H]1C[C@@H]1F [Example 261, (1S,2S)-N-(6-(7-bromo-5-chloro-6-fluoro-1H-indazol-4-yl)imidazo[1,2-a]pyridin-2-yl)-2-fluorocyclopropane-1-carboxamide] | < 100
2 | Cc1c(F)c(F)c2[nH]ncc2c1-c1ccc2nc(NC(=O)[C@@H]3C[C@@H]3F)cn2c1 [Example 262, (1S,2S)-N-(6-(6,7-difluoro-5-methyl-1H-indazol-4-yl)imidazo[1,2-a]pyridin-2-yl)-2-fluorocyclopropane-1-carboxamide] | < 100
3 | Cc1c(F)c(C(F)(F)F)c2[nH]ncc2c1-c1ccc2nc(NC(=O)[C@@H]3C[C@@H]3F)cn2c1 [Example 263, (1S,2S)-2-fluoro-N-(6-(6-fluoro-5-methyl-7-(trifluoromethyl)-1H-indazol-4-yl)imidazo[1,2-a]pyridin-2-yl)cyclopropane-1-carboxamide] | < 100
4 | C=Cc1cc(C)c(-c2ccc3nc(NC(=O)[C@@H]4C[C@@H]4F)cn3c2)c2cn[nH]c12 [Example 264, (1S,2S)-2-fluoro-N-(6-(5-methyl-7-vinyl-1H-indazol-4-yl)imidazo[1,2-a]pyridin-2-yl)cyclopropane-1-carboxamide] | < 100
5 | CS(=O)(=O)c1c(F)c(Cl)c(-c2ccc3nc(NC(=O)[C@@H]4C[C@@H]4F)cn3c2)c2cn[nH]c12 [Example 267, (1S,2S)-N-(6-(5-chloro-6-fluoro-7-(methylsulfonyl)-1H-indazol-4-yl)imidazo[1,2-a]pyridin-2-yl)-2-fluorocyclopropane-1-carboxamide] | 101 to 500
6 | COc1c(F)c(Cl)c(-c2ccc3nc(NC(=O)[C@@H]4C[C@@H]4F)cn3c2)c2cn[nH]c12 [Example 272, (1S,2S)-N-(6-(5-chloro-6-fluoro-7-methoxy-1H-indazol-4-yl)imidazo[1,2-a]pyridin-2-yl)-2-fluorocyclopropane-1-carboxamide] | < 100
7 | Cc1c(F)c(N(C)C)c2[nH]ncc2c1-c1ccc2nc(NC(=O)[C@@H]3C[C@@H]3F)cn2c1 [Example 273, (1S,2S)-N-(6-(7-(dimethylamino)-6-fluoro-5-methyl-1H-indazol-4-yl)imidazo[1,2-a]pyridin-2-yl)-2-fluorocyclopropane-1-carboxamide] | < 100
8 | C=CC(=O)Nc1cc(Cl)c(-c2ccc3nc(NC(=O)[C@@H]4C[C@@H]4F)cn3c2)c2cn[nH]c12 [Example 276, (1S,2S)-N-(6-(7-acrylamido-5-chloro-1H-indazol-4-yl)imidazo[1,2-a]pyridin-2-yl)-2-fluorocyclopropane-1-carboxamide] | < 100
9 | O=C(Nc1cn2cc(-c3c(Cl)c(F)c(N4CCC4)c4[nH]ncc34)ccc2n1)[C@@H]1C[C@@H]1F [Example 283, (1S,2S)-N-(6-(7-(azetidin-1-yl)-5-chloro-6-fluoro-1H-indazol-4-yl)imidazo[1,2-a]pyridin-2-yl)-2-fluorocyclopropane-1-carboxamide] | < 100
10 | C=CC(=O)Nc1cc2[nH]ncc2c(-c2ccc3nc(NC(=O)[C@@H]4C[C@@H]4F)cn3c2)c1Cl [Example 286, (1S,2S)-N-(6-(6-acrylamido-5-chloro-1H-indazol-4-yl)imidazo[1,2-a]pyridin-2-yl)-2-fluorocyclopropane-1-carboxamide] | > 1000
11 | CCOc1cc(C)c(-c2ccc3nc(NC(=O)[C@@H]4C[C@@H]4F)cn3c2)c2cn[nH]c12 [Example 287, (1S,2S)-N-(6-(7-ethoxy-5-methyl-1H-indazol-4-yl)imidazo[1,2-a]pyridin-2-yl)-2-fluorocyclopropane-1-carboxamide] | < 100
12 | CCOc1c(F)c(C)c(-c2ccc3nc(NC(=O)[C@@H]4C[C@@H]4F)cn3c2)c2cn[nH]c12 [Example 288, (1S,2S)-N-(6-(7-ethoxy-6-fluoro-5-methyl-1H-indazol-4-yl)imidazo[1,2-a]pyridin-2-yl)-2-fluorocyclopropane-1-carboxamide] | < 100
13 | O=C(Nc1cn2cc(-c3c(Cl)c(F)c(SCCO)c4[nH]ncc34)ccc2n1)[C@@H]1C[C@@H]1F [Example 290, (1S,2S)-N-(6-(5-chloro-6-fluoro-7-((2-hydroxyethyl)thio)-1H-indazol-4-yl)imidazo[1,2-a]pyridin-2-yl)-2-fluorocyclopropane-1-carboxamide] | < 100

Continued, values first:

Row | IC50 [nM] | SMILES
14 | < 100 | CNc1c(F)c(Cl)c(-c2ccc3nc(NC(=O)[C@@H]4C[C@@H]4F)cn3c2)c2cn[nH]c12 [Example 265, (1S,2S)-N-(6-(5-chloro-6-fluoro-7-(methylamino)-1H-indazol-4-yl)imidazo[1,2-a]pyridin-2-yl)-2-fluorocyclopropane-1-carboxamide]
15 | < 100 | CSc1c(F)c(Cl)c(-c2ccc3nc(NC(=O)[C@@H]4C[C@@H]4F)cn3c2)c2cn[nH]c12 [Example 266, (1S,2S)-N-(6-(5-chloro-6-fluoro-7-(methylthio)-1H-indazol-4-yl)imidazo[1,2-a]pyridin-2-yl)-2-fluorocyclopropane-1-carboxamide]
16 | < 100 | Cc1c(F)c(Br)c2[nH]ncc2c1-c1ccc2nc(NC(=O)[C@@H]3C[C@@H]3F)cn2c1 [Example 268, (1S,2S)-N-(6-(7-bromo-6-fluoro-5-methyl-1H-indazol-4-yl)imidazo[1,2-a]pyridin-2-yl)-2-fluorocyclopropane-1-carboxamide]
17 | < 100 | CSc1c(F)c(C)c(-c2ccc3nc(NC(=O)[C@@H]4C[C@@H]4F)cn3c2)c2cn[nH]c12 [Example 269, (1S,2S)-2-fluoro-N-(6-(6-fluoro-5-methyl-7-(methylthio)-1H-indazol-4-yl)imidazo[1,2-a]pyridin-2-yl)cyclopropane-1-carboxamide]
18 | 101 to 500 | Cc1c(F)c(S(C)(=O)=O)c2[nH]ncc2c1-c1ccc2nc(NC(=O)[C@@H]3C[C@@H]3F)cn2c1 [Example 270, (1S,2S)-2-fluoro-N-(6-(6-fluoro-5-methyl-7-(methylsulfonyl)-1H-indazol-4-yl)imidazo[1,2-a]pyridin-2-yl)cyclopropane-1-carboxamide]
19 | < 100 | COc1c(F)c(C)c(-c2ccc3nc(NC(=O)[C@@H]4C[C@@H]4F)cn3c2)c2cn[nH]c12 [Example 271, (1S,2S)-2-fluoro-N-(6-(6-fluoro-7-methoxy-5-methyl-1H-indazol-4-yl)imidazo[1,2-a]pyridin-2-yl)cyclopropane-1-carboxamide]
20 | < 100 | C=CC(=O)Nc1cc(C)c(-c2ccc3nc(NC(=O)[C@@H]4C[C@@H]4F)cn3c2)c2cn[nH]c12 [Example 274, (1S,2S)-N-(6-(7-acrylamido-5-methyl-1H-indazol-4-yl)imidazo[1,2-a]pyridin-2-yl)-2-fluorocyclopropane-1-carboxamide]
21 | < 100 | CCOc1c(F)c(Cl)c(-c2ccc3nc(NC(=O)[C@@H]4C[C@@H]4F)cn3c2)c2cn[nH]c12 [Example 275, (1S,2S)-N-(6-(5-chloro-7-ethoxy-6-fluoro-1H-indazol-4-yl)imidazo[1,2-a]pyridin-2-yl)-2-fluorocyclopropane-1-carboxamide]
22 | 101 to 500 | CN1CCN(c2c(F)c(Cl)c(-c3ccc4nc(NC(=O)[C@@H]5C[C@@H]5F)cn4c3)c3cn[nH]c23)CC1 [Example 277, (1S,2S)-N-(6-(5-chloro-6-fluoro-7-(4-methylpiperazin-1-yl)-1H-indazol-4-yl)imidazo[1,2-a]pyridin-2-yl)-2-fluorocyclopropane-1-carboxamide]
23 | > 1000 | Cc1ccc2[nH]ncc2c1-c1ccc2nc(NC(=O)C3CC3CO)cn2c1 (stereo not drawn) [Example 278, 2-(hydroxymethyl)-N-(6-(5-methyl-1H-indazol-4-yl)imidazo[1,2-a]pyridin-2-yl)cyclopropane-1-carboxamide]
24 | < 100 | O=C(Nc1cn2cc(-c3c(Cl)c(F)c(N4CCOCC4)c4[nH]ncc34)ccc2n1)[C@@H]1C[C@@H]1F [Example 279, (1S,2S)-N-(6-(5-chloro-6-fluoro-7-morpholino-1H-indazol-4-yl)imidazo[1,2-a]pyridin-2-yl)-2-fluorocyclopropane-1-carboxamide]
25 | < 100 | CCNc1c(F)c(Cl)c(-c2ccc3nc(NC(=O)[C@@H]4C[C@@H]4F)cn3c2)c2cn[nH]c12 [Example 280, (1S,2S)-N-(6-(5-chloro-7-(ethylamino)-6-fluoro-1H-indazol-4-yl)imidazo[1,2-a]pyridin-2-yl)-2-fluorocyclopropane-1-carboxamide]
26 | < 100 | CCN(CC)c1c(F)c(Cl)c(-c2ccc3nc(NC(=O)[C@@H]4C[C@@H]4F)cn3c2)c2cn[nH]c12 [Example 281, (1S,2S)-N-(6-(5-chloro-7-(diethylamino)-6-fluoro-1H-indazol-4-yl)imidazo[1,2-a]pyridin-2-yl)-2-fluorocyclopropane-1-carboxamide]
27 | < 100 | O=C(Nc1cn2cc(-c3c(Cl)c(F)c(N4CCCC4)c4[nH]ncc34)ccc2n1)[C@@H]1C[C@@H]1F [Example 282, (1S,2S)-N-(6-(5-chloro-6-fluoro-7-(pyrrolidin-1-yl)-1H-indazol-4-yl)imidazo[1,2-a]pyridin-2-yl)-2-fluorocyclopropane-1-carboxamide]
28 | 101 to 500 | Nc1cc2[nH]ncc2c(-c2ccc3nc(NC(=O)[C@@H]4C[C@@H]4F)cn3c2)c1Cl [Example 284, (1S,2S)-N-(6-(6-amino-5-chloro-1H-indazol-4-yl)imidazo[1,2-a]pyridin-2-yl)-2-fluorocyclopropane-1-carboxamide]
29 | < 100 | COc1cc(C)c(-c2ccc3nc(NC(=O)[C@@H]4C[C@@H]4F)cn3c2)c2cn[nH]c12 [Example 285, (1S,2S)-2-fluoro-N-(6-(7-methoxy-5-methyl-1H-indazol-4-yl)imidazo[1,2-a]pyridin-2-yl)cyclopropane-1-carboxamide]
30 | > 1000 | C=CC(=O)Nc1cc2[nH]ncc2c(-c2ccc3nc(NC(=O)[C@@H]4C[C@@H]4F)cn3c2)c1C [Example 289, (1S,2S)-N-(6-(6-acrylamido-5-methyl-1H-indazol-4-yl)imidazo[1,2-a]pyridin-2-yl)-2-fluorocyclopropane-1-carboxamide]
